Several values for one entry are separate records, joined by “and”; a condition that tells them apart may be missing. Identical values can stand only once. Inconclusive results and toxic doses are left out.
Tested on: BDF1 mice, P388 leukemia ip, median survival T/C
Assay: NCI In Vivo Anticancer Drug Screen. Data for tumor model P388 Leukemia (intraperitoneal) in B6D2F1 (BDF1) mice
Settings: endpoint: median survival time, higher = longer survival
In short: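 Compound-treated tumour-bearing mice were compared with vehicle-treated controls. Survival was recorded, and the value is the treated-group measurement divided by the control-group measurement (T/C).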

[1] = dose: 100.0 mg/kg/injection, schedule: Q04DX003 (ip), vehicle: Klucel (hydroxypropylcellulose) (HPC)
[2] = dose: 200.0 mg/kg/injection, schedule: Q04DX003 (ip), vehicle: Klucel (hydroxypropylcellulose) (HPC)
[3] = dose: 400.0 mg/kg/injection, schedule: Q04DX003 (ip), vehicle: Klucel (hydroxypropylcellulose) (HPC)
[4] = dose: 50.0 mg/kg/injection, schedule: Q01DX009 (ip), vehicle: saline with Tween-80
[5] = dose: 100.0 mg/kg/injection, schedule: Q01DX009 (ip), vehicle: saline with Tween-80
[6] = dose: 100.0 mg/kg/injection, schedule: Q04DX003 (ip), vehicle: saline with Tween-80
[7] = dose: 200.0 mg/kg/injection, schedule: Q01DX009 (ip), vehicle: saline with Tween-80
[8] = dose: 400.0 mg/kg/injection, schedule: Q01DX009 (ip), vehicle: saline with Tween-80

Brc1cnc[nH]1
T/C (dose: 25.0 mg/kg/injection, schedule: Q01DX009 (ip), vehicle: water): 103 % of control
T/C (dose: 25.0 mg/kg/injection, schedule: Q04DX003 (ip), vehicle: water): 106 % of control
T/C (dose: 50.0 mg/kg/injection, schedule: Q01DX009 (ip), vehicle: water): 91 % of control
T/C (dose: 50.0 mg/kg/injection, schedule: Q04DX003 (ip), vehicle: water): 94 % of control and 106 % of control
T/C (dose: 100.0 mg/kg/injection, schedule: Q01DX009 (ip), vehicle: water): 87 % of control
T/C (dose: 100.0 mg/kg/injection, schedule: Q04DX003 (ip), vehicle: water): 93 % of control (2×) and 110 % of control
T/C (dose: 200.0 mg/kg/injection, schedule: Q01DX009 (ip), vehicle: water): 100 % of control
T/C (dose: 200.0 mg/kg/injection, schedule: Q04DX003 (ip), vehicle: water): 89 % of control and 97 % of control
T/C (dose: 300.0 mg/kg/injection, schedule: Q04DX003 (ip), vehicle: water): 98 % of control
T/C (dose: 400.0 mg/kg/injection, schedule: Q04DX003 (ip), vehicle: water): 94 % of control and 99 % of control and 103 % of control

O=S(=O)(O)c1ccc(-c2ccccc2)cc1
T/C (dose: 25.0 mg/kg/injection, schedule: Q01DX009 (ip), vehicle: Klucel (hydroxypropylcellulose) (HPC)): 95 % of control
T/C (dose: 50.0 mg/kg/injection, schedule: Q01DX009 (ip), vehicle: Klucel (hydroxypropylcellulose) (HPC)): 87 % of control
T/C (dose: 100.0 mg/kg/injection, schedule: Q01DX009 (ip), vehicle: Klucel (hydroxypropylcellulose) (HPC)): 95 % of control
T/C [1]: 88 % of control

CCc1ccc(C(=O)N/N=C(\C)[C@]2(O)Cc3c(O)c4c(c(O)c3[C@@H](OC3CC(N)C(O)C(C)O3)C2)C(=O)c2c(OC)cccc2C4=O)cc1 (stereo partly drawn)
T/C (dose: 1.56 mg/kg/injection, schedule: Q01DX009 (ip), vehicle: water): 117 % of control
T/C (dose: 3.12 mg/kg/injection, schedule: Q01DX009 (ip), vehicle: water): 161 % of control
T/C (dose: 6.25 mg/kg/injection, schedule: Q01DX009 (ip), vehicle: water): 152 % of control and 166 % of control
T/C (dose: 12.5 mg/kg/injection, schedule: Q01DX009 (ip), vehicle: water): 95 % of control and 122 % of control

Cc1ccc(S(=O)(=O)N2CCC(=O)c3ccc(Cl)cc32)cc1
T/C [1]: 100 % of control
T/C (dose: 200.0 mg/kg/injection, schedule: Q01DX009 (ip), vehicle: Klucel (hydroxypropylcellulose) (HPC)): 100 % of control
T/C [2]: 104 % of control
T/C (dose: 400.0 mg/kg/injection, schedule: Q01DX009 (ip), vehicle: Klucel (hydroxypropylcellulose) (HPC)): 95 % of control
T/C [3]: 104 % of control

NC(=O)c1nc(-c2ccccc2)c(-c2ccccc2)[nH]c1=O
T/C [4]: 109 % of control
T/C [5]: 117 % of control
T/C [6]: 106 % of control
T/C [7]: 99 % of control
T/C (dose: 200.0 mg/kg/injection, schedule: Q04DX003 (ip), vehicle: saline with Tween-80): 102 % of control
T/C (dose: 400.0 mg/kg/injection, schedule: Q04DX003 (ip), vehicle: saline with Tween-80): 116 % of control

CCN(CCP(c1ccccc1)c1ccccc1)CCP(c1ccccc1)c1ccccc1
T/C [4]: 86 % of control
T/C (dose: 66.0 mg/kg/injection, schedule: Q04DX003 (ip), vehicle: saline with Tween-80): 150 % of control
T/C [6]: 159 % of control

CCCCCCCCCCCCCCCCCCNC(=O)Nc1ccc(C)cc1C
T/C (dose: 100.0 mg/kg/injection, schedule: Q04DX003 (ip), vehicle: saline + alcohol): 91 % of control
T/C (dose: 200.0 mg/kg/injection, schedule: Q04DX003 (ip), vehicle: saline + alcohol): 108 % of control
T/C (dose: 400.0 mg/kg/injection, schedule: Q04DX003 (ip), vehicle: saline + alcohol): 108 % of control

CC(C)CCc1cc(O)c(CCC(C)C)cc1O
T/C (dose: 0.78 mg/kg/injection, schedule: Q01DX009 (ip), vehicle: saline with Tween-80): 101 % of control
T/C (dose: 1.56 mg/kg/injection, schedule: Q01DX009 (ip), vehicle: saline with Tween-80): 102 % of control
T/C (dose: 3.12 mg/kg/injection, schedule: Q01DX009 (ip), vehicle: saline with Tween-80): 102 % of control
T/C (dose: 6.25 mg/kg/injection, schedule: Q01DX009 (ip), vehicle: saline with Tween-80): 104 % of control

O=C(c1ccccc1)N1CC=Cc2ccccc21
T/C [4]: 105 % of control
T/C [5]: 100 % of control
T/C [7]: 105 % of control

O=C(NCc1cnccn1)Oc1ccc([N+](=O)[O-])cc1
T/C [4]: 112 % of control
T/C [5]: 94 % of control
T/C [7]: 86 % of control
T/C [8]: 97 % of control

ClCC[N-]CC[N-]CCCl.ClCC[N-]CC[N-]CCCl.[O-][Cl+3]([O-])([O-])O.[Zn+2]
T/C (dose: 2.5 mg/kg/injection, schedule: Q04DX003 (ip), vehicle: Klucel (hydroxypropylcellulose) (HPC)): 105 % of control
T/C (dose: 5.0 mg/kg/injection, schedule: Q03DX003 (ip), vehicle: saline): 110 % of control
T/C (dose: 5.0 mg/kg/injection, schedule: Q04DX003 (ip), vehicle: Klucel (hydroxypropylcellulose) (HPC)): 112 % of control
T/C (dose: 10.0 mg/kg/injection, schedule: Q04DX003 (ip), vehicle: Klucel (hydroxypropylcellulose) (HPC)): 108 % of control
T/C (dose: 20.0 mg/kg/injection, schedule: Q04DX003 (ip), vehicle: Klucel (hydroxypropylcellulose) (HPC)): 124 % of control
T/C (dose: 40.0 mg/kg/injection, schedule: Q03DX003 (ip), vehicle: saline): 75 % of control
T/C (dose: 40.0 mg/kg/injection, schedule: Q04DX003 (ip), vehicle: Klucel (hydroxypropylcellulose) (HPC)): 154 % of control
T/C (dose: 80.0 mg/kg/injection, schedule: Q03DX003 (ip), vehicle: saline): 33 % of control

Nc1ccc(Nc2ccncc2)cc1
T/C (dose: 50.0 mg/kg/injection, schedule: Q04DX003 (ip), vehicle: Klucel (hydroxypropylcellulose) (HPC)): 100 % of control
T/C [1]: 95 % of control
T/C [2]: 90 % of control

O=c1[nH]c2cc(F)ccc2o1
T/C [1]: 100 % of control
T/C [2]: 95 % of control
T/C [3]: 100 % of control

C=CCCC/C(C)=N/NS(=O)(=O)c1ccc(C)cc1
T/C [4]: 109 % of control
T/C [5]: 109 % of control
T/C [7]: 95 % of control

CC(CNCCN)C[Si](C)(C)C (stereo not drawn)
T/C (dose: 12.5 mg/kg/injection, schedule: Q01DX009 (ip), vehicle: saline): 95 % of control
T/C (dose: 12.5 mg/kg/injection, schedule: Q04DX003 (ip), vehicle: saline): 88 % of control
T/C (dose: 25.0 mg/kg/injection, schedule: Q01DX009 (ip), vehicle: saline): 100 % of control
T/C (dose: 25.0 mg/kg/injection, schedule: Q04DX003 (ip), vehicle: saline): 100 % of control
T/C (dose: 50.0 mg/kg/injection, schedule: Q01DX009 (ip), vehicle: saline): 90 % of control
T/C (dose: 50.0 mg/kg/injection, schedule: Q04DX003 (ip), vehicle: saline): 94 % of control

Cc1ccc(NC(=O)NC2CCCCC2)cc1
T/C [5]: 91 % of control
T/C [7]: 88 % of control
T/C [8]: 100 % of control

O=S(=O)(O)CCC(CO)(CO)CO
T/C (dose: 100.0 mg/kg/injection, schedule: Q04DX003 (ip), vehicle: saline): 100 % of control
T/C (dose: 200.0 mg/kg/injection, schedule: Q04DX003 (ip), vehicle: saline): 95 % of control
T/C (dose: 400.0 mg/kg/injection, schedule: Q04DX003 (ip), vehicle: saline): 95 % of control

CCOC(=O)C(=O)CC1=CC=CC2=NC(=O)CCN12
T/C (dose: 66.0 mg/kg/injection, schedule: Q01DX001 (ip), vehicle: saline with Tween-80): 109 % of control
T/C (dose: 100.0 mg/kg/injection, schedule: Q01DX001 (ip), vehicle: saline with Tween-80): 100 % of control
T/C (dose: 150.0 mg/kg/injection, schedule: Q01DX001 (ip), vehicle: saline with Tween-80): 100 % of control
T/C (dose: 200.0 mg/kg/injection, schedule: Q01DX001 (ip), vehicle: saline with Tween-80): 100 % of control

CC(C)COP(=O)(O)OCC(C)C.[Al]
T/C [4]: 92 % of control
T/C [5]: 94 % of control
T/C [7]: 94 % of control

C=C1C(C2(C)C(OC(C)=O)CC(=O)OC(C)(COC(C)=O)C2CC(=O)OC)C(OC=O)C(OC(=O)C(O)C(C)CC)C2(C)C(c3ccoc3)CC(=O)C12O (stereo not drawn)
T/C (dose: 3.75 mg/kg/injection, schedule: Q01DX009 (ip), vehicle: Klucel (hydroxypropylcellulose) (HPC)): 94 % of control
T/C (dose: 7.5 mg/kg/injection, schedule: Q01DX009 (ip), vehicle: Klucel (hydroxypropylcellulose) (HPC)): 93 % of control

COc1cccc2c1C(=O)c1c(O)c3c(c(O)c1C2=O)CC(O)(C(=O)C(C)C)CC3OC1CC(N)C(O)C(C)O1 (stereo not drawn)
T/C (dose: 9.4 mg/kg/injection, schedule: Q04DX003 (ip), vehicle: water): 107 % of control
T/C (dose: 18.8 mg/kg/injection, schedule: Q04DX003 (ip), vehicle: water): 107 % of control
T/C (dose: 37.5 mg/kg/injection, schedule: Q04DX003 (ip), vehicle: water): 116 % of control
T/C (dose: 75.0 mg/kg/injection, schedule: Q04DX003 (ip), vehicle: water): 90 % of control

From PubChem BioAssay AID328 (DTP/NCI, 2004)
